Measurements: ChEMBL document CHEMBL1201862, “PubChem BioAssay data set” (2004)
“And” between values parts separate entries of the source, which are not always exact repeats. Equal entries are not always repeated.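 Where inhibition never reached the appropriate level, the endpoint shown equals the highest concentration tested. Otherwise, values were interpolated linearly from a five-concentration, 48-hour dose response in 96-well plates. At the GI50, growth is halved.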 The source made the active and inactive calls. No stated cut-off is given here; in the data, active = GI50 up to about 1.1 µM and inactive = higher. Peptide text beside a SMILES is read from it. * marks the point of attachment. OSu = O=C1CCC(=O)N1O*

Tests used:
Test in all cases: inhibition of tumour cell growth, NCI panel, 48 h
UACC-62 = system: UACC-62
M14 = system: M14
HOP-62 = system: HOP-62
CCRF-CEM = system: CCRF-CEM
SK-MEL-2 = system: SK-MEL-2
OVCAR-8 = system: OVCAR-8
CAKI-1 = system: CAKI-1
SNB-75 = system: SNB-75
NCI-H522 = system: NCI-H522
MCF7 = system: MCF7
UO-31 = system: UO-31
SF-539 = system: SF-539
MDA-N = system: MDA-N
ACHN = system: ACHN
HOP-92 = system: HOP-92
RXF 393 = system: RXF 393
HCC 2998 = system: HCC 2998
NCI-H226 = system: NCI-H226
IGROV-1 = system: IGROV-1
Malme-3M = system: Malme-3M

Row | Compound | GI50 (UACC-62) | GI50 (M14) | GI50 (HOP-62) | GI50 (CCRF-CEM) | GI50 (SK-MEL-2) | GI50 (OVCAR-8) | GI50 (CAKI-1) | GI50 (SNB-75) | GI50 (NCI-H522) | GI50 (MCF7) | GI50 (UO-31) | GI50 (SF-539) | GI50 (MDA-N) | GI50 (ACHN) | GI50 (HOP-92) | GI50 (RXF 393) | GI50 (HCC 2998) | GI50 (NCI-H226) | GI50 (IGROV-1) | GI50 (Malme-3M)
1 | Cc1cn(C2CCC(CO)(CF)O2)c(=O)[nH]c1=O (stereo not drawn) | > 100 µM (inactive) | > 100 µM (inactive) | > 100 µM (inactive) | > 100 µM (inactive) | > 100 µM (inactive) | > 100 µM (inactive) | > 100 µM (inactive) | > 100 µM (inactive) and 96.6 µM (inactive) | > 100 µM (inactive) | > 100 µM (inactive) | > 100 µM (inactive) | > 100 µM (inactive) | > 100 µM (inactive) | > 100 µM (inactive) | > 100 µM (inactive) | > 100 µM (inactive) | > 100 µM (inactive) | > 100 µM (inactive) | > 100 µM (inactive) | –
2 | COc1cccc([C@@H]2C/C(=N\NC(=O)C(=O)N[C@@H](C)c3ccccc3)c3ccccc3N2)c1 | 9.31 µM (inactive) | > 100 µM (inactive) | 76.6 µM (inactive) | > 100 µM (inactive) | > 100 µM (inactive) | – | 25.8 µM (inactive) | 21.3 µM (inactive) | – | 7.05 µM (inactive) | > 100 µM (inactive) | 13.1 µM (inactive) | 4.66 µM (inactive) | 40.6 µM (inactive) | 30.5 µM (inactive) | 35.3 µM (inactive) | > 100 µM (inactive) | > 100 µM (inactive) | – | –
3 | CCn1ncc(Oc2c(Cl)cc(N)cc2Cl)c(Cl)c1=O | 39.5 µM (inactive) | 30.1 µM (inactive) | 44.9 µM (inactive) | 83 µM (inactive) | 34.6 µM (inactive) | 56.5 µM (inactive) | 35.1 µM (inactive) | 51.5 µM (inactive) | – | 38.7 µM (inactive) | 47.4 µM (inactive) | 31.6 µM (inactive) | 29.9 µM (inactive) | 57.9 µM (inactive) | 73.6 µM (inactive) | 29 µM (inactive) | 34.7 µM (inactive) | 40.3 µM (inactive) | 42.3 µM (inactive) | 32.9 µM (inactive)
4 | COc1ccc(S(=O)(=O)N2C(=O)CCC2C(=O)NN)cc1 (stereo not drawn) | > 100 µM (inactive) | > 100 µM (inactive) | > 100 µM (inactive) | > 100 µM (inactive) | > 100 µM (inactive) | > 100 µM (inactive) | > 100 µM (inactive) | > 100 µM (inactive) | 25.5 µM (inactive) | > 100 µM (inactive) | > 100 µM (inactive) | > 100 µM (inactive) | > 100 µM (inactive) | > 100 µM (inactive) | > 100 µM (inactive) | – | > 100 µM (inactive) | > 100 µM (inactive) | > 100 µM (inactive) | > 100 µM (inactive)
5 | NCCCCC(NC(=O)C(N)Cc1ccc(O)cc1)C(=O)NC(CCCCN)C(=O)NC(CCCCN)C(=O)ON1C(=O)CCC1=O (stereo not drawn) (H-YKKK-OSu; configuration not given here) | > 100 µM (inactive) | > 100 µM (inactive) | > 100 µM (inactive) | – | > 100 µM (inactive) | > 100 µM (inactive) | – | > 100 µM (inactive) | – | > 100 µM (inactive) | > 100 µM (inactive) | – | > 100 µM (inactive) | > 100 µM (inactive) | > 100 µM (inactive) | > 100 µM (inactive) | > 100 µM (inactive) | > 100 µM (inactive) | > 100 µM (inactive) | > 100 µM (inactive)
6 | O=C(N/N=C\c1c(O)ccc2ccccc12)c1ccncc1 | 0.467 µM (active) | 0.474 µM (active) | 1.31 µM (inactive) | 0.0887 µM (active) | 0.257 µM (active) | 0.574 µM (active) | 1 µM (active) | 2.75 µM (inactive) | 0.638 µM (active) | 3.09 µM (inactive) | 0.356 µM (active) | 0.675 µM (active) | 1.33 µM (inactive) | 0.206 µM (active) | 1.31 µM (inactive) | 0.383 µM (active) | > 11.4 µM (inactive) | 0.628 µM (active) | 0.148 µM (active) | –
